Structure (SMILES) | melting point [°C]
COC(=O)c1nc(Cl)c(Cl)nc1N | 232
Clc1ccc(Br)nc1 | 65 to 69
Cc1c2c(c(C)c3c1CC3=O)C(=O)C2 | 188
Cc1cc(N2CCNCC2)c2ccccc2n1 | 101 to 103
Cc1nnc2sc(SCC(=O)O)nn2c1=O | 201
CC(C)Nc1nc(Cl)nc(NC(C)C)n1 | 213
Cn1c(=O)c(C2=NNC(=O)C2=Cc2cccc(Cl)c2)c(O)c2ccccc21 | 265
CN(C)c1ccccc1-c1ccccc1P(c1ccccc1)c1ccccc1 | 126 to 128
CC(=O)NC(N)=S | 165
O=C(O)Cn1c(CN2CCOCC2)nc2ccccc21 | 214 to 218
CC(=O)C(=CN)Cc1ccccc1 | 95
O=[N+]([O-])c1cccc(-c2nnc3n2NC(c2ccccc2O)S3)c1 (stereo not drawn) | 210
NS(=O)(=O)c1ccc(N2CCCCS2(=O)=O)cc1 | 180
CCCN(CCC)c1c([N+](=O)[O-])cc(C)cc1[N+](=O)[O-] | 80
O=C1CN2CCOC2(c2ccccc2Cl)c2cc(Cl)ccc2N1 (stereo not drawn) | 203
Cc1ccc2ncoc2c1 | 29 to 31
COC(=O)c1ccc2snnc2c1 | 118 to 120
CCOC(=O)c1c(C)oc(NC(=O)Nc2ccc(F)cc2)c1C(=O)OCC | 146 to 148
Nc1ccc(Br)c(F)c1 | 68
Clc1cccc(C(Cl)(Cl)Cl)c1 | 0.6
Cc1nn(-c2ccccc2)c(Cl)c1C=O | 144 to 148

Structure (SMILES) | melting point [°C]
O=[N+]([O-])CCc1ccccc1 | -23
CC(=O)c1ccc(OCCCCCBr)cc1O | 63 to 66
CCCCc1ccc(N=Cc2ccc(C=Nc3ccc(CCCC)cc3)cc2)cc1 | 232
CCCCCCCCCCCCCCCC1CCCCC1 | 29
COC(=O)NN=Cc1c[n+]([O-])c2ccccc2[n+]1[O-] | 239
CCC(C)(CC)c1cc(NC(=O)c2c(OC)cccc2OC)on1 | 178
CCOC(=O)c1c(-c2ccccc2)csc1NC(=O)C(Cl)Cl | 92 to 93
Cc1cc(N=Nc2ccc(N)cc2)c(C(C)C)cc1N=Nc1ccc(N)cc1 | 177
O=C(O)Cc1ccc(O)c(F)c1 | 132 to 134
N#Cc1ccc(F)cc1C#N | 101
OCc1ccc(-c2ccsc2)cc1 | 152 to 154
CCOCCC(=O)OCC | -75
O=Cc1cccc2c1CCOC2=O | 140
CCN(CC)c1ccccc1C | -60
Cc1cc(C)c(C2(C)CC(C(=NNC(N)=O)c3cc4cc(Br)ccc4o3)C2)c(C)c1 (stereo not drawn) | 230 to 232
CC1=NNC(=O)N(N=Cc2cccnc2)C1 | 217
Cc1ccc(C(N)=NO)cc1 | 136 to 137
COc1ccsc1CN(C(=O)CCl)c1c(C)cccc1C | 73
Clc1ccc(C(c2ccccc2Cl)C(Cl)Cl)cc1 (stereo not drawn) | 77
Cc1nc(/C(C#N)=N/Nc2cccc(C(F)(F)F)c2)sc1/N=N/c1ccc(F)cc1 | 211
CCOC(=O)/C(C#N)=C(/SC)N(C)C | 90 to 94

Structure (SMILES) | melting point [°C]
NC(=S)c1ccc(F)cc1F | 131
O=Cc1ccc(-c2cccs2)s1 | 57 to 58
CC(=O)C(C(=O)OC1CC(C)CCC1C(C)C)C(C)C(C(C)=O)C(=O)OC1CC(C)CCC1C(C)C (stereo not drawn) | 200
Cc1ccnc(C#N)c1 | 87
Cc1ccc(C)c(OCCCC(C)(C)C(=O)O)c1 | 61
CCOC(=O)Cc1ccncc1 | 19
O=C1OC(O)c2cc(Cl)c(Cl)cc21 (stereo not drawn) | 180
CC(C)(C)OC(=O)N1CCN(c2cc(C(=O)O)ccn2)CC1 | 174 to 176
OC1OC(COCc2ccccc2)C(OCc2ccccc2)C(OCc2ccccc2)C1OCc1ccccc1 (stereo not drawn) | 152
c1ccc(C2OCCCO2)cc1 | 41
C[Si](C)(C)O[Si](C)(C)O[Si](C)(C)O[Si](C)(C)O[Si](C)(C)C | -80
FC(F)CC(F)(F)F | -102
CC(C)(C)OC(=O)N[C@H](CO)Cc1ccccc1 | 97
O=C1c2ccccc2C(=O)N1c1cn[nH]c1 | 259 to 260
c1ccc2c(c1)CCc1ccccc1CC2 | 109
COc1ccc(C)cc1S(=O)(=O)Cl | 82 to 84
CCCCCC#CCO | -18
CC(=O)Nc1ccc(Cl)c(N)c1 | 168 to 172
COc1cc2c(cc1OC)C(=S)NCC2 | 223 to 226
CCOC(=O)C(C#N)=NNc1cccc([N+](=O)[O-])c1 | 155 to 156
O=C1c2ccccc2NC1(OC1(c2ccccn2)Nc2ccccc2C1=O)c1ccccn1 (stereo not drawn) | 240
